This note sets out measurements from US20250122520A1, “Application of OBF1 Transcription Factor in Chromosome Doubling of Plant and Transgenic Plant Cultivation Method” (JIANGSU ACADEMY OF AGRICULTURAL SCIENCES, priority 2023, published 2025).

Assay type in all cases: in vivo
In one test the test system is petunia. Nature of the test: Ploidy identification by flow cytometer of OBF1 over-expressing petunias screened with kanamycin. Particulars: for Proportion of chromosome doubling: OBF1 over-expression. How it is done:
(9) Two days later, the leaves were transferred to a regeneration culture medium with corresponding screening resistance, the culture medium was replaced every two to three weeks, and the leaves waited for differentiation.
(14) The ploidy of the plants was identified by a flow cytometer, a doubling ratio of the plants under different treatment concentrations of kanamycin was calculated, and the results are shown in Table 2 and FIGS. 10A-10C.
Background: Flow cytometry measures light scatter and fluorescence of single cells or particles in a stream.

Another test relates to tobaccoes. Nature of the test: Ploidy identification by flow cytometer of OBF1 over-expressing tobaccoes screened with kanamycin. As to conditions: tobacco; for Proportion of chromosome doubling: OBF1 over-expression. How it is done:
(5) The leaves were transferred to a screening culture medium with corresponding screening resistance; the culture medium was replaced every two to three weeks, and the leaves waited for differentiation.
(8) The ploidy of the plants was identified by a flow cytometer, the doubling ratio of the plants under different screening concentrations of kanamycin was calculated, and the results are shown in Table 6 and FIGS. 14A-14B.

A further test concerns tomatoes. Nature of the test: Ploidy identification by flow cytometer of OBF1 over-expressing tomatoes screened with kanamycin. As to conditions: tomato; for Proportion of chromosome doubling: OBF1 over-expression. How it is done: (5) The explants were transferred and placed into the screening culture medium; the photoperiod was 18/6 h, the temperature was 22-25° C., the humidity was 60%, and concentration settings of kanamycin and compositions of culture media were shown in Table 3;
(6) The ploidy of the plants was identified by a flow cytometer, the doubling ratio of the plants under different screening concentrations of kanamycin was calculated, and the results are shown in Table 4 and FIGS. 12A-12B.

Take `NC[C@H]1O[C@H](O[C@H]2[C@H](O)[C@@H](O[C@H]3O[C@H](CO)[C@@H](O)[C@H](N)[C@H]3O)[C@H](N)C[C@@H]2N)[C@H](O)[C@@H](O)[C@@H]1O` [kanamycin]: the “Proportion of chromosome doubling” value was determined as 0% in the test with petunia (kanamycin 50 mg/L); 63.6% with petunia (kanamycin 100 mg/L); 80% in the test with petunia (kanamycin 150 mg/L); 0% with tobaccoes (kanamycin 50 mg/mL); 33.3% in the test with tobaccoes (kanamycin 100 mg/mL); 0% in the test on tomatoes (kanamycin 50 mg/mL). Besides, in the test on tomatoes (kanamycin 100 mg/mL), the “Proportion of chromosome doubling” value turned out to be 60%. Further, the Chromosome-doubled plant with petunia (kanamycin 50 mg/L, of 27 transgenic plants) is 0 plant; with petunia (kanamycin 100 mg/L, of 22 transgenic plants), 14 plant; with petunia (kanamycin 150 mg/L, of 6 transgenic plants), 4 plant; in the test on tobaccoes (kanamycin 50 mg/mL, of 10 transgenic plants), 0 plant; in the test with tobaccoes (kanamycin 100 mg/mL, of 20 transgenic plants) it was 6 plant; in the test with tomatoes (kanamycin 50 mg/mL, of 30 transgenic plants) it was 0 plant. Besides, the Chromosome-doubled plant with tomatoes (kanamycin 100 mg/mL, of 10 transgenic plants) was 6 plant.
